According to ChEMBL document CHEMBL3588756, “Allobetulin derived seco-oleananedicarboxylates act as inhibitors of acetylcholinesterase” (Bioorg Med Chem Lett, 2015):

Tests used:
[1] = Cytotoxicity against mouse NIH/3T3 cells assessed as cell survival after 96 hrs by sulforhodamine-B assay; type: cell-based; conditions: NIH3T3, 96 h
[2] = target: T1, Acetylcholinesterase (Electrophorus electricus, UniProt O42275); assay: Inhibition of Electrophorus electricus acetylcholinesterase using acetylthiocholine iodide as substrate preincubated for 20 mins followed by substrate addition measured for 30 mins by Ellman's method
[3] = target: T1, Acetylcholinesterase; assay: Competitive Inhibition of Electrophorus electricus acetylcholinesterase using acetylthiocholine iodide as substrate preincubated for 20 mins followed by substrate addition measured for 30 mins by Ellman's method
[4] = target: T1, Acetylcholinesterase; assay: Uncompetitive Inhibition of Electrophorus electricus acetylcholinesterase using acetylthiocholine iodide as substrate preincubated for 20 mins followed by substrate addition measured for 30 mins by Ellman's method
[5] = Solubility of the compound in aqueous buffer; type: physicochemical
[6] = target: Cholinesterase (Equus caballus, UniProt P81908); assay: Inhibition of equine serum butyrylcholinesterase using butyrylthiocholineidioide as substrate preincubated for 20 mins followed by substrate addition measured for 30 mins by Ellman's method
Sequence of Cholinesterase (P81908 whole entry): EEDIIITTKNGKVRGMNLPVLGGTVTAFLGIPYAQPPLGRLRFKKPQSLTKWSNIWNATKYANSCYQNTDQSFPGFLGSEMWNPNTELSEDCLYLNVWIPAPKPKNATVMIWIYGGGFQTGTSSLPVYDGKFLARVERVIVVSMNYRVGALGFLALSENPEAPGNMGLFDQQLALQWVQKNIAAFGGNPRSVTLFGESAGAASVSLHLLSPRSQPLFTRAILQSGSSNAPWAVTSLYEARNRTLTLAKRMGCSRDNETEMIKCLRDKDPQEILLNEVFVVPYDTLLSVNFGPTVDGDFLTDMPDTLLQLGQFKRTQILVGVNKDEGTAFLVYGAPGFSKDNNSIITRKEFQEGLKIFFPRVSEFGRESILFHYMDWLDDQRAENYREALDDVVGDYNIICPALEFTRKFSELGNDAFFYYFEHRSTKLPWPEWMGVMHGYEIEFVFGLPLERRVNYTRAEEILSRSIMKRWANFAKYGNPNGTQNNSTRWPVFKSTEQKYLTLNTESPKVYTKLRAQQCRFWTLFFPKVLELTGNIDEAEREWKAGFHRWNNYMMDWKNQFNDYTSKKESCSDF

T1 sequence (O42275 whole entry): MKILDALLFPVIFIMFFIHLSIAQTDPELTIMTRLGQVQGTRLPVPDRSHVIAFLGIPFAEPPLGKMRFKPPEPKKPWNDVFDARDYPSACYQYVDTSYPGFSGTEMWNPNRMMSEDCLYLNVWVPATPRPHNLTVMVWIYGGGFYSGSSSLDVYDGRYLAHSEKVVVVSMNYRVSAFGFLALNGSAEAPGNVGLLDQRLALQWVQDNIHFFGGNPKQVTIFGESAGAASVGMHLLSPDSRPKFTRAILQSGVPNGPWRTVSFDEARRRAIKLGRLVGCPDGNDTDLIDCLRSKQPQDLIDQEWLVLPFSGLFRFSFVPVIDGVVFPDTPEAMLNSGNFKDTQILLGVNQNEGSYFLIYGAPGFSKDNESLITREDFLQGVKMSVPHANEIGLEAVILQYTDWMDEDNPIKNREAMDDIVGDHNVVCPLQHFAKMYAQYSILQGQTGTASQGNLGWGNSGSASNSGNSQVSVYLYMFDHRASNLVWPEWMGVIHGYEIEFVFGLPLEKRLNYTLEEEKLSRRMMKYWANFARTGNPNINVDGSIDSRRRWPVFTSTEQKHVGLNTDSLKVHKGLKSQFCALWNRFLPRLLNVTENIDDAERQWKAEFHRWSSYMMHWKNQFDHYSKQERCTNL

With `C=C(C)[C@@H]1CC[C@]2(C)[C@H](CC[C@@H]3[C@H]4[C@H]5OC[C@@]4(CCC5(C)C)CC[C@]32C)[C@@]1(C)CCC(=O)O` the EC50 [1] was greater than 30 µM and the Ki [2] was 31.8 µM.

`C#CCOC(=O)CC[C@]1(C)[C@H]2CC[C@@H]3[C@H]4[C@H]5OC[C@@]4(CCC5(C)C)CC[C@@]3(C)[C@]2(C)CC[C@H]1C(=C)C` gave an EC50 [1] greater than 30 µM, a Ki [3] of 3.33 µM and a Ki [4] of 2.48 µM.

Work on `C#CCOC(=O)C[C@]1(C)[C@H]2CC[C@@H]3[C@H]4[C@H]5OC[C@@]4(CCC5(C)C)CC[C@@]3(C)[C@]2(C)CC[C@H]1C(C)(C)C(=O)OCC#C` yielded an EC50 [1] of 7 µM, a Ki [3] of 10.5 µM and a Ki [4] of 4.63 µM.

For `C=CCCOC(=O)C[C@]1(C)[C@H]2CC[C@@H]3[C@H]4[C@H]5OC[C@@]4(CCC5(C)C)CC[C@@]3(C)[C@]2(C)CC[C@H]1C(C)(C)C(=O)OCCC=C`, the EC50 [1] was greater than 30 µM.

In the case of `C=CCCOC(=O)CC[C@]1(C)[C@H]2CC[C@@H]3[C@H]4[C@H]5OC[C@@]4(CCC5(C)C)CC[C@@]3(C)[C@]2(C)CC[C@H]1C(=C)C`, the solubility [5] is reported as “Insoluble”.

With `N[C@@H](CO)C(=O)O` [SERINE] the IC50 [6] was 0.016 µM and the IC50 [2] was 0.015 µM.
